Assay results as given in ChEMBL document CHEMBL3045512, “Synthesis of some novel triazoloquinazolines and triazinoquinazolines and their evaluation for anti-inflammatory activity” (Med Chem Res, 2012).

Tests used:
Mus musculus [1] = assay: Anti-inflammatory activity in Mus musculus albino (mouse) assessed as inhibition of formalin-induced paw swelling at 30 mg/kg, po administered 30 min prior formalin challenge measured after 90 min post challenge (reference value: 9.5 +/- 0.04 mm/min); type: functional
Mus musculus [2] = assay: Toxicity in Mus musculus albino (mouse) assessed as serum ALP level at 300 mg/kg, po for 10 days (reference value: 31.63 +/- 3.73 U/l); type: organism-based; design: dose 300 mg/kg, route oral; conditions: in vivo, 240 h
Mus musculus [3] = assay: Toxicity in Mus musculus albino (mouse) assessed as serum SGPT level at 300 mg/kg, po for 10 days (reference value: 35.82 +/- 5.26 U/l); type: organism-based; design: dose 300 mg/kg, route oral; conditions: in vivo, 240 h
Mus musculus [4] = assay: Toxicity in Mus musculus albino (mouse) assessed as brownish eye mucus at 80 to 375 mg/kg, ip; type: organism-based; design: dose 80-375 mg/kg, route intraperitoneal; conditions: in vivo
Mus musculus [5] = assay: Toxicity in Mus musculus albino (mouse) assessed as SOD activity per gram of Hb at 300 mg/kg, po for 10 days (reference value: 12.7+/- 2.08 U/g Hb); type: organism-based; design: dose 300 mg/kg, route oral; conditions: in vivo, 240 h
Mus musculus [6] = assay: Toxicity in Mus musculus albino (mouse) assessed as general depression at 80 to 375 mg/kg, ip; type: organism-based; design: dose 80-375 mg/kg, route intraperitoneal; conditions: in vivo
Mus musculus [7] = assay: Anti-inflammatory activity in Mus musculus albino (mouse) assessed as inhibition of formalin-induced paw swelling at 30 mg/kg, po administered 30 min prior formalin challenge measured after 30 min post challenge (reference value: 9.46 +/- 0.035 mm/min); type: functional
Mus musculus [8] = assay: Toxicity in Mus musculus albino (mouse) assessed as increase in heart rate at 80 to 375 mg/kg, ip; type: organism-based; design: dose 80-375 mg/kg, route intraperitoneal; conditions: in vivo
Mus musculus [9] = assay: Toxicity in Mus musculus albino (mouse) assessed as tremor inhind limbs at 80 to 375 mg/kg, ip; type: organism-based, Limb; design: dose 80-375 mg/kg, route intraperitoneal; conditions: in vivo
Mus musculus [10] = assay: Toxicity in Mus musculus albino (mouse) assessed as rapid respiration at 80 to 375 mg/kg, ip; type: organism-based; design: dose 80-375 mg/kg, route intraperitoneal; conditions: in vivo
Mus musculus [11] = assay: Toxicity in Mus musculus albino (mouse) assessed as GPx activity per gram of Hb at 300 mg/kg, po for 10 days (Rvb =179.16 +/- 10.45 U/g Hb); type: organism-based; design: dose 300 mg/kg, route oral; conditions: in vivo, 240 h
Mus musculus [12] = assay: Toxicity in ip dosed Mus musculus albino (mouse) assessed as mortality measured per gram body weight; type: organism-based; conditions: in vivo
Mus musculus [13] = assay: Toxicity in Mus musculus albino (mouse) assessed as serum SGOT level at 300 mg/kg, po for 10 days (reference value: 9.74 +/- 1.73 U/l); type: organism-based; design: dose 300 mg/kg, route oral; conditions: in vivo, 240 h
Mus musculus [14] = assay: Anti-inflammatory activity in Mus musculus albino (mouse) assessed as inhibition of formalin-induced paw swelling at 30 mg/kg, po administered 30 min prior formalin challenge measured after 60 min post challenge (reference value: 9.73 +/- 0.06 mm/min); type: functional
Mus musculus [15] = assay: Toxicity in Mus musculus albino (mouse) assessed as bluish toe at 80 to 375 mg/kg, ip; type: organism-based; design: dose 80-375 mg/kg, route intraperitoneal; conditions: in vivo
Mus musculus [16] = assay: Toxicity in Mus musculus albino (mouse) assessed as GSH activity at 300 mg/kg, po for 10 days (reference value: 59.57 +/- 5.10 %); type: organism-based; design: dose 300 mg/kg, route oral; conditions: in vivo, 240 h
Mus musculus [17] = assay: Anti-inflammatory activity in Mus musculus albino (mouse) assessed as inhibition of formalin-induced paw swelling at 30 mg/kg, po administered 30 min prior formalin challenge measured after 120 min post challenge (reference value: 9.83 +/- 0.071 mm/min); type: functional
Mus musculus [18] = assay: Toxicity in Mus musculus albino (mouse) assessed as serum TBARS level at 300 mg/kg, po for 10 days (reference value: 4.35 +/- 0.86 U/l); type: organism-based; design: dose 300 mg/kg, route oral; conditions: in vivo, 240 h
Mus musculus [19] = assay: Toxicity in Mus musculus albino (mouse) assessed as bluish skin at 80 to 375 mg/kg, ip; type: organism-based; design: dose 80-375 mg/kg, route intraperitoneal; conditions: in vivo
Mus musculus [20] = assay: Toxicity in Mus musculus albino (mouse) assessed as serum gamma-glutamyl transferase level at 300 mg/kg, po for 10 days (reference value: 4.43 +/- 0.31 U/l); type: organism-based; design: dose 300 mg/kg, route oral; conditions: in vivo, 240 h
Mus musculus [21] = assay: Toxicity in Mus musculus albino (mouse) assessed as serum LDH level at 300 mg/kg, po for 10 days (reference value: 217.84 +/- 13.36 U/l); type: organism-based; design: dose 300 mg/kg, route oral; conditions: in vivo, 240 h
Mus musculus [22] = assay: Toxicity in Mus musculus albino (mouse) assessed as SOD activity per gram of Hb at 600 mg/kg, po for 10 days (reference value: 12.7 +/- 2.08 U/g Hb); type: organism-based; design: dose 600 mg/kg, route oral; conditions: in vivo, 240 h
Mus musculus [23] = assay: Toxicity in Mus musculus albino (mouse) assessed as serum gamma-glutamyl transferase level at 600 mg/kg, po for 10 days (reference value: 4.43 +/- 0.31 U/l); type: organism-based; design: dose 600 mg/kg, route oral; conditions: in vivo, 240 h
Mus musculus [24] = assay: Anti-inflammatory activity in Mus musculus albino (mouse) assessed as inhibition of formalin-induced paw swelling at 60 mg/kg, po administered 30 min prior formalin challenge measured after 120 min post challenge (reference value: 9.83 +/- 0.071 mm/min); type: functional
Mus musculus [25] = assay: Toxicity in Mus musculus albino (mouse) assessed as serum SGPT level at 600 mg/kg, po for 10 days (reference value: 35.82 +/- 5.26 U/l); type: organism-based; design: dose 600 mg/kg, route oral; conditions: in vivo, 240 h
Mus musculus [26] = assay: Toxicity in Mus musculus albino (mouse) assessed as serum LDH level at 600 mg/kg, po for 10 days (reference value: 217.84 +/- 13.36 U/l); type: organism-based; design: dose 600 mg/kg, route oral; conditions: in vivo, 240 h
Mus musculus [27] = assay: Toxicity in Mus musculus albino (mouse) assessed as GSH activity at 600 mg/kg, po for 10 days (reference value: 59.57 +/- 5.10 %); type: organism-based; design: dose 600 mg/kg, route oral; conditions: in vivo, 240 h
Mus musculus [28] = assay: Toxicity in Mus musculus albino (mouse) assessed as GPx activity per gram of Hb at 600 mg/kg, po for 10 days (Rvb =179.16 +/- 10.45 U/g Hb); type: organism-based; design: dose 600 mg/kg, route oral; conditions: in vivo, 240 h
Mus musculus [29] = assay: Anti-inflammatory activity in Mus musculus albino (mouse) assessed as inhibition of formalin-induced paw swelling at 60 mg/kg, po administered 30 min prior formalin challenge measured after 30 min post challenge (reference value: 9.46 +/- 0.035 mm/min); type: functional
Mus musculus [30] = assay: Toxicity in Mus musculus albino (mouse) assessed as serum TBARS level at 600 mg/kg, po for 10 days (reference value: 4.35 +/- 0.86 U/l); type: organism-based; design: dose 600 mg/kg, route oral; conditions: in vivo, 240 h
Mus musculus [31] = assay: Toxicity in Mus musculus albino (mouse) assessed as serum SGOT level at 600 mg/kg, po for 10 days (reference value: 9.74 +/- 1.73 U/l); type: organism-based; design: dose 600 mg/kg, route oral; conditions: in vivo, 240 h
Mus musculus [32] = assay: Anti-inflammatory activity in Mus musculus albino (mouse) assessed as inhibition of formalin-induced paw swelling at 60 mg/kg, po administered 30 min prior formalin challenge measured after 60 min post challenge (reference value: 9.73 +/- 0.06 mm/min); type: functional
Mus musculus [33] = assay: Toxicity in Mus musculus albino (mouse) assessed as serum ALP level at 600 mg/kg, po for 10 days (reference value: 31.63 +/- 3.73 U/l); type: organism-based; design: dose 600 mg/kg, route oral; conditions: in vivo, 240 h
Mus musculus [34] = assay: Anti-inflammatory activity in Mus musculus albino (mouse) assessed as inhibition of formalin-induced paw swelling at 60 mg/kg, po administered 30 min prior formalin challenge measured after 90 min post challenge (reference value: 9.5 +/- 0.04 mm/min); type: functional

COc1ccccc1/C=N/n1c(Nc2ccc(S(N)(=O)=O)cc2)nc2ccccc2c1=O
Activity (Mus musculus [1]): 7.19 millimeter/min | Activity (Mus musculus [2]): 30.01 U/L | Activity (Mus musculus [3]): 33.65 U/L | Activity (Mus musculus [4]): Toxic | Activity (Mus musculus [5]): 13.1 U/g Hb | Activity (Mus musculus [6]): Toxic | Activity (Mus musculus [7]): 7.76 millimeter/min | Activity (Mus musculus [8]): Toxic | Activity (Mus musculus [9]): Toxic | Activity (Mus musculus [10]): Toxic | Activity (Mus musculus [11]): 183 U/g Hb | Activity (Mus musculus [12]): 222.25 millimeter/min | Activity (Mus musculus [13]): 10.7 U/L | Activity (Mus musculus [14]): 7.78 millimeter/min | Activity (Mus musculus [15]): Toxic | Activity (Mus musculus [16]): 61.45% | Activity (Mus musculus [17]): 6.5 millimeter/min | Activity (Mus musculus [18]): 3.97 nmol/mL | Activity (Mus musculus [19]): Toxic | Activity (Mus musculus [20]): 4.12 U/L | Activity (Mus musculus [21]): 205.65 U/L

COc1ccc2c(c1)c(CC(=O)O)c(C)n2C(=O)c1ccc(Cl)cc1 [INDOMETHACIN]
Activity (Mus musculus [22]): 7.45 U/g Hb | Activity (Mus musculus [23]): 9.45 U/L | Activity (Mus musculus [24]): 6.98 millimeter/min | Activity (Mus musculus [25]): 65.37 U/L | Activity (Mus musculus [26]): 326.8 U/L | Activity (Mus musculus [27]): 45.32% | Activity (Mus musculus [28]): 134 U/g Hb | Activity (Mus musculus [29]): 6.5 millimeter/min | Activity (Mus musculus [30]): 7.45 nmol/mL | Activity (Mus musculus [31]): 24.51 U/L | Activity (Mus musculus [32]): 7.19 millimeter/min | Activity (Mus musculus [33]): 76.41 U/L | Activity (Mus musculus [34]): 7.2 millimeter/min
